# From patent EP0966960A1, “Agent for inhibiting carcinogenesis or tumor metastasis” (DAINIPPON INK AND CHEMICALS, INC., priority 1998, dated 1999)
# What was measured:
# [1] = test system: colon cancer strain highly metastasizable to liver (MOUSE COLON 26); assay: Inhibition of metastasis of colon cancer to liver; type: in vivo, BALB/c mouse; details: for Number of visible tumor tubers (average ± SD): liver
# Procedure: The abdomen of a BALB/c mouse was sectioned, and 2 × 10^4 cells of a colon cancer strain highly metastasizable to liver (MOUSE COLON 26) were injected into the portal vein. Zeaxanthin (4 µg/mouse in Test Example 1; 40 µg/mouse in Test Example 2; 400 µg/mouse in Test Example 3) and all-trans retinoic acid (ATRA) as a positive control were orally administered everyday for 5 consecutive days after the inoculation with tumor cells and then the administration was discontinued for 2 days. The cycle of the 5-day administration and the 2-day discontinuation was repeated twice. Twenty days later, the mouse was sacrificed, and the number of visible tumor tubers in the liver was counted. In Table 2, the mark "*" indicates a significant difference when p < 0.005 (Whitney's U-test).
# [2] = test system: Naturally Occurring Hepatoma; assay: Carcinogenesis-inhibiting effect with regard to naturally occurring hepatoma; type: in vivo, C3H/He female mice
# Procedure: C3H/He female mice (control group: 14 mice; test group: 12 mice), in which hepatoma is known to occur naturally, were allowed to freely take food and water for 40 weeks. For the mice of the test group, 20 mg zeaxanthin (having a purity of 98.5%) which was obtained in a manner similar to that of the above example of production of zeaxanthin was suspended in 1 ml dimethyl sulfoxide (DMSO), and thereafter the suspension was added to the drinking water of the test so that the final concentration of zeaxanthin was 0.005%. On the other hand, for the control group, only DMSO in the same amount was added to the drinking water. At the end of the 40 weeks, both groups of mice were sacrificed, and the number of tumors which occurred in the liver was counted.
# B16-BL6 melanoma cells = assay: Inhibition of invasion of basement membrane (Transwell chamber); type: cell-based; details: 4 hours
# Procedure: The action mechanism of zeaxanthin for inhibiting metastasis of colon cancer to the liver in Example 2 was examined using a Transwell chamber.
# A chamber which is separated into two layers (upper and lower layers) by a membrane filter having pores of 8 µm in diameter was used, the upper surface of the filter being coated with 5 µg of matrigel (a substrate for restructuring a basement membrane), and the lower surface being coated with 1 µg of fibronectin. B16-BL6 melanoma cells having a cell density of […] were added to the upper layer of the chamber, and were incubated in a 5%-CO2 incubator at 37°C for 4 hours in the presence of 0.05∼500 µM of zeaxanthin. After the incubation, the number of cells which invaded the surface of the lower part of the filter and shifted thereto were counted using an optical microscope. […]
# lung cancer = assay: Inhibition of carcinogenesis (lung), 4-nitroquinoline-1-oxide initiator / glycerin promoter; type: in vivo, ddY mice
# Procedure: As a carcinogenesis initiator, 4-nitroquinoline-1-oxide dissolved in a solution of olive oil and cholesterol mixed in the ratio of 20:1 was administered subcutaneously in a single dose to ddY mice (a control group of 15 mice and a test group of 15 mice) in an amount of 10 mg/3.3ml/kg weight. Four weeks after administration, an 8% water solution of glycerin as a carcinogenesis promoter was given to the mice of the control group as drinking water for 25 weeks in a manner such that they could take it freely. (The duration of carcinogenesis promotion was 25 weeks).
# In a manner similar to that for the control group, the carcinogenesis initiator was subcutaneously administered to the mice of the test group, and 4 weeks after the administration, an 8% water solution of glycerin as a carcinogenesis promoter was given to the mice of the test group as drinking water for 25 weeks in a manner such that they could take it freely, while zeaxanthin suspended in a liquid mixture of olive oil and "Tween 80" was forcibly administered to the mice of the test group 3 times a week throughout the 25-week duration of carcinogenesis promotion in an amount of 0.2 g per mouse per administration.
# In addition, food and drinking water was given to the mice in a manner such that they could take it freely. Twenty five weeks after the start of the administration of zeaxanthin, that is, after the duration of carcinogenesis promotion was completed, the mice of both the control group and the test group were sacrificed, and the number of mice in which lung cancer occurred, and the average number of tumors were counted.
# In Table 4, those values in parentheses indicate values obtained by dividing the number of mice in each group in which lung cancer occurred by the total number of mice in each group. The average number of tumors was obtained by dividing the total number of tumors in all mice in each group by the total number of mice in each group.
# skin cancer = assay: Inhibition of carcinogenesis (skin), 7,12-dimethylbenz[a]anthracene / TPA; type: in vivo, ICR male mouse
# Procedure: The back of an ICR male mouse (control group: 15 mice; test group: 14 mice) was shaved, and 100 µg of 7,12-dimethylbenz[a]anthracene in 100 µl of acetone was applied thereto. Two days after the application, application of 1.6 nmol of 12-O-tetradecanoylphorbal-13-acetate (TPA) in 100 µl of acetone was begun and repeated twice a week. The duration of carcinogenesis promotion was set to 15 weeks.
# An hour before every TPA application, 160 nmol zeaxanthin (which makes the molar ratio of TPA to zeaxanthin 1:100) in 100 µl of acetone was applied to the mice of test group. After the 15-week duration of carcinogenesis promotion, the ratio of occurrence of skin tumor and the average number of tumors were measured.
# In Table 5, those values in parentheses indicate values obtained by dividing the number of mice in each group in which skin cancer occurred by the total number of mice in each group. The average number of tumors was obtained by dividing the total number of tumors in all mice in each group by the total number of mice in each group.
# [3] = Acute toxicity test on mice; design: species or system mouse (ICR male); details: mouse, in vivo; oral by gastric probe, 1000 or 2000 mg/kg, n=3, 7 days observation; approximate, estimated from survival rate
# Procedure: Using a gastric probe, zeaxanthin (having a purity of 98.5%) was forcibly orally administered to each mouse (ICR male weighing 20∼25 g, n=3) in an amount of 1000 or 2000 mg/kg. After the oral administration, the mice were reared in a cage for 7 days to observe the number of deaths and general conditions. An approximate median lethal dose (LD50, in mg/kg) was estimated from the survival rate of the mice after observation.
# [4] = from average number of tumors, test group versus control group
compound,measurement,setting,value
"CC1=C(/C=C/C(C)=C/C=C/C(C)=C/C(=O)O)C(C)(C)CCC1 [ATRA, all-trans retinoic acid, reference compound]",Number of visible tumor tubers (average ± SD),"[1]; positive control, orally, dose not given, twenty days later, * p < 0.005",0.83 ± 1.17*
same,Average weight of liver,"[1]; positive control, orally, dose not given, twenty days later",0.92 g
CC1=C(/C=C/C(C)=C/C=C/C(C)=C/C=C/C=C(C)/C=C/C=C(C)/C=C/C2=C(C)C[C@@H](O)CC2(C)C)C(C)(C)C[C@H](O)C1 [zeaxanthin],inhibition rate,"[2]; test group versus control group, 40 weeks",95%
same,Number of mice in which tumor occurred (percentage),"[2]; zeaxanthin 0.005% in drinking water, 40 weeks, 12 mice (control 35.7%)",8.3%
same,Number of mice in which tumor occurred,"[2]; zeaxanthin 0.005% in drinking water, 40 weeks, 12 mice, liver tumors (control 5 of 14)",1
same,Average number of tumors,"[2]; zeaxanthin 0.005% in drinking water, 40 weeks, liver (control 1.75)",0.08
same,Number of visible tumor tubers (average ± SD),"[1]; 4 µg/mouse orally, 5 days on / 2 days off, cycle repeated twice, twenty days later (no administration 12.25 ± 6.13)",6.86 ± 2.27
same,Average weight of liver,"[1]; 4 µg/mouse orally, twenty days later (no administration 2.16)",1.36 g
same,Number of visible tumor tubers (average ± SD),"[1]; 40 µg/mouse orally, 5 days on / 2 days off, cycle repeated twice, twenty days later, * p < 0.005",1.87 ± 1.96*
same,Average weight of liver,"[1]; 40 µg/mouse orally, twenty days later",0.99 g
same,Number of visible tumor tubers (average ± SD),"[1]; 400 µg/mouse orally, 5 days on / 2 days off, cycle repeated twice, twenty days later, * p < 0.005",1.00 ± 2.13*
same,Average weight of liver,"[1]; 400 µg/mouse orally, twenty days later",0.99 g
same,Number of cells which invaded/shifted to basement membrane,"B16-BL6 melanoma cells; 0.05 µM, 37°C (DMSO only 157 ± 21)",137 ± 17
same,Number of cells which invaded/shifted to basement membrane,"B16-BL6 melanoma cells; 0.5 µM, 37°C",119 ± 17
same,Number of cells which invaded/shifted to basement membrane,"B16-BL6 melanoma cells; 5 µM, 37°C, * p < 0.05",109 ± 12*
same,Number of cells which invaded/shifted to basement membrane,"B16-BL6 melanoma cells; 50 µM, 37°C, ** p < 0.005",88 ± 7**
same,Number of cells which invaded/shifted to basement membrane,"B16-BL6 melanoma cells; 500 µM, 37°C, ** p < 0.005",36 ± 12**
same,Average number of tumors,"lung cancer; 0.2 g per mouse per administration, 3 times a week, 25 weeks (control 1.40)",0.38
same,Number of mice in which lung cancer occurred (divided by total number of mice),"lung cancer; 0.2 g per mouse per administration, 3 times a week, 25 weeks (control 73%)",33%
same,Number of mice in which lung cancer occurred,"lung cancer; 0.2 g per mouse per administration, 3 times a week, 25 weeks, 15 mice (control 11 of 15)",5
same,Inhibition ratio of carcinogenesis,lung cancer; [4],73%
same,Average number of tumors,"skin cancer; 160 nmol applied an hour before every TPA application, 15 weeks (control 1.60)",0.86
same,Number of mice in which skin cancer occurred (divided by total number of mice),"skin cancer; 160 nmol applied an hour before every TPA application, 15 weeks (control 47%)",21%
same,Number of mice in which skin cancer occurred,"skin cancer; 160 nmol applied an hour before every TPA application, 15 weeks, 14 mice (control 7 of 15)",3
same,Inhibition ratio of carcinogenesis,skin cancer; [4],46%
same,LD50 at 168 h,[3],> 2000 mg/kg
"CC1=C(/C=C/C(C)=C/C=C/C(C)=C/C=C/C=C(C)/C=C/C=C(C)/C=C/C2=C(C)CCCC2(C)C)C(C)(C)CCC1 [β-carotene, reference compound]",effect in inhibiting natural carcinogenesis,[2]; experiments conducted in the same manner as in Example 1,no such effect
